We go through three compounds from patent US8076332B2, “N- (2-aminophenyl) benzamide derivative having urea structure” (Santen Pharmaceutical Co., Ltd., priority 2006, dated 2011).

Structures are written as SMILES.

The test system of assay [1] is human trabecular meshwork cell line (TM-1 cells). The assay is described as follows: Test for evaluation of effect of morphological change on trabecular meshwork cells (cell shape index, CSI). It is filed as cell-based. Particulars: final concentration 10 μM, incubation 24 hours, CSI=4π×(Cell Area)/(Cell Perimeter)^2, average per group, Control 0.730. The procedure:
1. Test for Evaluation of Effect of Morphological Change on Trabecular Meshwork Cells
As a method for evaluating a cellular morphological change, an evaluation system using the cell shape index (hereinafter referred to as “CSI”) as an index has been reported in The Journal of Clinical Investigation, 103, 1141-1150 (1999). Therefore, according to the method described in the above document, an effect of morphological change of the present compounds on trabecular meshwork cells was evaluated.
A human trabecular meshwork cell line (hereinafter referred to as “TM-1 cells”) reported in Investigative Opthalmology & Visual Science, 43, 151-161 (2002) was used.
Culture medium 1: A reagent was prepared by adding fetal bovine serum (10%), L-glutamine (2 mM), amphotericin B (2.5 μg/mL), and gentamicin (25 μg/mL) to Dulbecco's modified Eagle medium (hereinafter referred to as “D-MEM”).
Culture medium 2: Fetal bovine serum (3%), L-glutamine (2 mM), amphotericin B (2.5 μg/mL), and gentamicin (25 μg/mL) were added to D-MEM.
Cell staining liquid: A mixed liquid of Calcein-AM (16 μM) and Hoechst 33342 (40 μM) was prepared by diluting a Calcein-AM solution (cytoplasmic staining reagent, manufactured by Dojindo Laboratories) and a Hoechst 33342 solution (nuclear staining reagent, manufactured by Dojindo Laboratories) with D-MEM containing L-glutamine (2 mM), amphotericin B (2.5 μg/mL), and gentamicin (25 μg/mL).
TM-1 cells subcultured at 37° C. in a 8% carbon dioxide gas atmosphere were treated with a trypsin/EDTA solution (0.05% trypsin and 0.53 mM tetrasodium ethylenediaminetetraacetate) at 24 hours before performing a drug treatment mentioned below and seeded on a 96-well culture plate. The culture medium 1 was used for the subculture of the cells. The culture medium 2 was used for the cell culture after seeding the cells on the plate.
A test compound was dissolved in dimethyl sulfoxide, whereby a 5 mM solution was prepared. Then, the resulting solution was diluted with the culture medium 2, whereby a 200 μM test compound solution was prepared.
It has been reported that Y-27632 which is a Rho kinase inhibitor induces a morphological change in trabecular meshwork cells in Investigative Ophthalmology & Visual Science, 42, 137-144 (2001). Therefore, Y-27632 (produced according to the method described in WO 90/05723) was used as a positive control, and dissolved in dimethyl sulfoxide in the same manner as the test compound, whereby a 5 mM solution was prepared, and then, the resulting solution was diluted with the culture medium 2, whereby a 200 μM positive control compound solution was prepared.
1) To a 96-well culture plate, a solution of TM-1 cells adjusted to a cell density of […] was added in an amount of 95 μL (1.5×10^4 cells) per well.
2) Incubation was performed at 37° C. in a 8% carbon dioxide gas atmosphere for 24 hours.
3) The test compound solution or positive control compound solution was added in an amount of 5 μL per well (the final concentration of the test compound or positive control compound was 10 μM). As a control, the culture medium 2 containing dimethyl sulfoxide (4%) was added in an amount of 5 μL per well.
4) Incubation was performed at 37° C. in a 8% carbon dioxide gas atmosphere for 24 hours.
5) The cell staining liquid was added in an amount of 10 μL per well.
6) Incubation was performed at 37° C. in a 8% carbon dioxide gas atmosphere for 1 hour to stain the cells.
7) A 37% formaldehyde solution was added in an amount of 10 μL per well.
8) Incubation was performed at room temperature for 1 hour to fix the cells.
9) Washing with phosphate-buffered saline was performed.
10) Using Array Scan Vti HCS reader (manufactured by Cellomics), images of stained cells magnified with a 20 times objective lens were captured in 80 fields (10 fields×8 wells) per test compound addition group.
11) CSI was calculated for each cell and an average value was obtained for each test compound addition group. […]

Assay [2] relates to male Japanese White rabbits. Description: Test for evaluation of intraocular pressure-lowering effect (intracameral administration). Format: in vivo. Particulars: 20 μL of 1 mM administration liquid to one eye, at 9 hours after administering, versus vehicle control group, 6 cases per group. The method, then:
2. Test for Evaluation of Intraocular Pressure-Lowering Effect
In order to evaluate an intraocular pressure-lowering effect of the present compounds, a test for evaluation of intraocular pressure-lowering effect of intracameral administration of a drug using male Japanese White rabbits was performed.
A test compound was dissolved or suspended in physiological saline containing 0.5% dimethyl sulfoxide, whereby a 1 mM test compound administration liquid was prepared.
One drop of 0.4% oxybuprocaine hydrochloride eye drop was instilled into both eyes of each male Japanese White rabbit to achieve local anesthesia, and thereafter, the intraocular pressure was measured using an applanation tonometer. Then, by using a syringe fitted with a 30-gauge needle, the test compound administration liquid (20 μL) was intracamerally administered to one eye. As a control, 20 μL of the vehicle (physiological saline containing 0.5% dimethyl sulfoxide) for the test compound was intracamerally administered. After the lapse of a certain period of time from the administration of the test compound or vehicle, one drop of 0.4% oxybuprocaine hydrochloride eye drop was instilled into the administered eye to achieve local anesthesia, and thereafter, the intraocular pressure was measured using an applanation tonometer.
The intraocular pressure-lowering effect of each test compound was evaluated by calculating an intraocular pressure reduction rate. The intraocular pressure reduction rate (%) was calculated using the following equation. (Intraocular Pressure Reduction rate(%))=100×(Average Value of Intraocular Pressure of Control Group)−(Average Value of Intraocular Pressure of Each Test Compound Administration Group)/(Average Value of Intraocular Pressure of Control Group) (Test Results)
As an example of the test results, the intraocular pressure reduction rates of the respective test compound administration groups at 9 hours after administering the respective test compounds (Compound 1-59, Compound 1-80, and Compound 2-2) are shown in Table II (one group consisting of 6 cases).

`Nc1ccccc1NC(=O)c1ccc(CN(CCCN2CCOCC2)C(=O)NCCc2ccc3c(c2)OCO3)cc1` [Compound 1-59, N-(2-Aminophenyl)-4-[3-[2-(benzo[1,3]dioxol-5-yl)ethyl]-1-[3-(morpholin-4-yl)propyl]ureidomethyl]benz-amide] had a CSI in assay [1] of 0.571. The “Intraocular Pressure Reduction Rate (%)” value in assay [2] was found to be 19%.

Regarding `CN(C)CCN(Cc1ccc(C(=O)Nc2ccccc2N)cc1)C(=O)Nc1ccc2c(c1)OCCO2` [Compound 1-80, N-(2-Aminophenyl)-4-[3-(2,3-dihydrobenzo[1,4]dioxin-6-yl)-1-(2-dimethylamino-ethyl)ureidomethyl]benzamide], the CSI in assay [1] turned out to be 0.543. Also, the “Intraocular Pressure Reduction Rate (%)” value in assay [2] is listed as 18%.

In assay [1], `CN(C)CCCN(Cc1ccc(C(=O)Nc2ccccc2N)cc1)C(=O)Nc1ccc(F)c(F)c1` [Compound 2-2, N-(2-Aminophenyl)-4-[3-(3,4-difluorophenyl)-1-(3-dimethylaminopropyl)ureidomethyl]benzamide] returned a CSI of 0.585. Moreover, the “Intraocular Pressure Reduction Rate (%)” value in assay [2] stood at 13%.
